Among the data in ChEMBL document CHEMBL4602667, “An NMR-Based Chemometric Strategy to Identify Leishmania donovani Nucleoside Hydrolase Inhibitors from the Brazilian Tree Ormosia arborea” (J Nat Prod, 2020) are inhibition, IC50 and Ki values, retold here.

Calls of active or inactive are those of the source. The calls are words filed in the database; no cut-off is given here.

One assay relates to Leishmania donovani. Kind of assay: Reversible inhibition of recombinant Leishmania donovani C-terminal His6-tagged Nucleoside hydrolase expressed in Escherichia coli BL21(DE3) cells assessed recovery of enzyme activity at 10 times of IC50 preincubated for 20 mins followed by inosine addition by jump dilution experiment based assay.
Assay [1] can be described thus: Inhibition of recombinant Leishmania donovani C-terminal His6-tagged Nucleoside hydrolase expressed in Escherichia coli BL21(DE3) cells assessed as reduction in uric acid formation by coupled assay.
The nature of assay [2]: Noncompetitive inhibition of recombinant Leishmania donovani C-terminal His6-tagged Nucleoside hydrolase expressed in Escherichia coli BL21(DE3) cells assessed as decrease in Vmax using 0.01 to 3 mM of inosine as substrate preincubated for 20 mins followed by inosine addition.

`O=C(/C=C/c1ccc(O)cc1)O[C@@H]1Cc2c(O)cc3c(c2O[C@@H]1c1ccc(O)c(O)c1)[C@H]1c2c(O)cc(O)cc2O[C@@](c2ccc(O)c(O)c2)(O3)[C@@H]1O`: the inhibition result in the assay on Leishmania donovani is “Active”. Also, in assay [1], the half-inhibitory concentration (IC50) is 25.6 µM. Further, the Ki in assay [2] is 21.2 µM.

Turning to `O=C(/C=C/c1ccc(O)cc1)O[C@@H]1Cc2c(O)cc3c(c2O[C@@H]1c1ccc(O)c(O)c1)[C@H]1c2c(O)cc(O)cc2O[C@@](c2cc(O)c(O)c(O)c2)(O3)[C@@H]1O`, the inhibition entry with Leishmania donovani is “Active”. In addition, the IC50 in assay [1] is 28.2 µM. For the same molecule, the Ki in assay [2] was 27.9 µM.

In general, IC50 refers to the concentration that inhibits the measured activity by half. Usually Ki stands for the equilibrium dissociation constant of an inhibitor or competing ligand from its target.
